{
  "source": "patent US20230107216A1",
  "about": "“PANTETHEINE DERIVATIVES AND USES THEREOF” (Comet Therapeutics, Inc., priority 2018, published 2023)",
  "key": {"[1]": {"tested_on": "Vitamin B12 deficiency (Cbl−/− diet) mouse model", "assay": "Vitamin B12 deficiency mouse model: liver protein determination (ELISA, TNFα, protein carbonyls)", "type": "in vivo, C57BL/6 mice", "protocol": "A vitamin B12 deficiency mouse model was used following the methods described at Ghosh et al 2016.\nAnimal maintenance and feeding. Female weanling C57BL/6 mice (n=65) were obtained at 3 weeks of age from Shanghai Sippe-Bk Lab Animal Co., Ltd. The mice were housed in a SPF environment and maintained at 20° C.±6, under standard lighting conditions (12-h light/dark cycle). Animals were divided into 5 animals per cage during modelling, and 3 animals per cage during compound test. The 3-week old mice were fed ad libitum with either AIN-76A control diet (D10001i) designated as control diet group or the same diet deficient in vitamin B12 (D07012902) with pectin as the source of fiber (designated as Cbl−/− cobalamin deficient) referred to as B12R+ by Ghosh et al. (Research Diets Inc., New Brunswick, N.J., USA). Cobalamin-restricted diet with pectin (B12R+) contained 50 g pectin/kg diet, because it has been shown earlier that pectin binds the intrinsic factor in the intestine and makes vitamin B12 less bioavailable. The control diet contained 50 g cellulose/kg diet as the fiber source instead of pectin. The mice also had ad libitum access to deionized water. Food intake and body weights were recorded every week.\nCompound treatment. After 6 weeks of feeding on either control or Cbl−/− diet, 9-week-old mice on Cbl−/− diet were randomly assigned into 5 groups with 3 mice per group per treatment. […]"}, "[2]": {"tested_on": "Vitamin B12 deficiency (Cbl−/− diet) mouse model", "assay": "Vitamin B12 deficiency mouse model: muscle strength by grip test", "type": "in vivo, mice", "conditions": "after 17 days of 50 mpk QD, IP", "protocol": "Mice at 18 weeks of age were either fed on control diet (n=12 mice) or cbl−/− diet (n=30 mice) for 15 weeks. Grip strength test was measured by using a Grip Strength test meter for mice and rats (Jiangsu, SANS Biological Technology, CO. LTD, SA417) and recorded as day zero grip strength analysis. Briefly, machine was turned on (push peak) and calibrated to zero. Front leg strength was measured by pulling the mice away from the bar by holding the tail of the mice. Total 5 values were measured for each mouse. After the measurement the cbl−/− mice were divided into three groups of N=10 mice per group. Each group received either vehicle (0.1% saline) or Compound 410 or Compound 500, IP at the dose of 50 mpk QD. […]"}},
  "data": [
    {"smiles": "COC(=O)CC(C(C)=O)C(=O)SCCNC(=O)CCNC(=O)[C@H](O)C(C)(C)CO", "note": "(stereo partly shown) [Compound 410]", "values": [
      {"measurement": "Protein Carbonyl in liver homogenates", "setting": "[1]; mice on the cbl−/− diet (untreated 25.4 pg/ug; control diet 16.6 pg/ug)", "value": 11.1, "unit": "pg/µg"},
      {"measurement": "TNF-α in liver homogenates", "setting": "[1]; mice on the cbl−/− diet (untreated 171.8 pg/ug; control diet 121.46 pg/ug)", "value": 62, "unit": "pg/µg"},
      {"measurement": "Grip strength", "setting": "[2]; mice on the cbl−/− diet (36.5 g; control diet 59 g)", "value": 57.7, "unit": "g"},
      {"measurement": "Recovery of grip strength", "setting": "[2]; mice on the cbl−/− diet", "value": "recovered grip strength to near the level of mice on the control diet"}
    ]}
  ]
}
